Reference: patent US5808144A, “Benzene derivatives” (Teijin Limited, priority 1995, dated 1998)

Experiments:
[1] = system: human IgE antibody; assay: Human IgE antibody production-inhibiting activity in vitro (lymphocytes + IL-4 + anti-CD40 Ab + IL-10, sandwich ELISA); format: cell-based; settings: Lymphocyte; for inhibition at 0.1 µM: 100 nM (0.1 μM), vs. no compound; for IC50: IgE antibody production
Method: (§1) Measurement of human IgE antibody production-inhibiting activity in vitro
(§2) In accordance with the following method established with reference to The Journal of Immunology (J. Immunol.), Vol. 146, 1836 to 1842 (1991) and the Journal of Immunology (J. Immunol.), Vol. 147, 8 to 13 (1991), the concentrations of IgE and […], when the compounds of the present invention shown in Table 12 were employed, were measured.
(§3) Peripheral venous blood gathered from a healthy person was subjected to a density-gradient centrifugation to isolate lymphocytes therefrom. The isolated lymphocytes were washed and suspended in a culture medium liquid (RPMI-1640 (made by Gibco Co.)+10% heat-inactivated FCS (made of Whittaker Co.)+100 μg/ml streptomycin+100 U/ml penicillin G+2 mM L-glutamine). The lymphocytes in the suspension were cultured for one week in the presence or non-presence of the above-mentioned compounds and in the presence of an interleukin 4 (IL-4, made by GENZYME CO.) (0.1 mg/ml), an anti-CD 40 antibodies (anti CD 40 Ab, made by BIOSOURCE CO., clone B-B20) (0.2 mg/ml), and an interleukin 10 (IL-10, made by GENZYME CO.) (0.2 mg/ml). To this culture system, the same culture medium liquid as mentioned above was supplemented, and then the culture was further carried out for one week. Thereafter, the concentrations of IgE antibodies and IgG antibodies in the supernatant of the culture mixture were measured by a sandwich ELISA method. In the measurement by the ELISA method, the concentration of the IgE antibodies was determined by using a primary antibody consisting of a rabbit anti-human IgE (ε) antibody (made by IGN Co.) and a secondary antibody consisting of biotin-anti-human IgE monoclonal antibody (G7-26, made by Phar Mingen Co.), and the concentration of IgG antibodies was determined by using a primary antibody consisting of anti-human IgG monoclonal antibody (G18-145, made by Phar Mingen Co.) and a secondary antibody consisting of biotin-donkey anti-human IgG antibody (H+L), made by Jackson Co.). Also, in the measurement of IgE and IgG antibody concentrations, as an enzyme, an Avidin-Biotin-HRP (Avidin-Biotin-Horse Radish Peroxidase; ABC kit, made by Vector Lab.) was used and as a substrate, TMB (3,3', 5,5'-tetramethylbenzidine) Microwell Peroxidase Substrate System (made by Kirkegaad & Perry Laboratories Inc.) was used.
(§4) On the basis of each antibody concentration when the compound of the present invention was not present, each antibody production-inhibition (%) in a concentration of the compound to be tested of 0.1 μM was calculated. Further, with respect to some of the compounds tested, the antibody production-inhibitions (%) of the tested compounds were measured in various concentrations thereof, and IC 50 values thereof were calculated. (Refer to Uejima et al., American Academy of Allergy & Immunology, Proceeding of 1995 Annual Meeting, Program No. 818).

[2] = system: human IgG antibody; assay: Human IgG antibody production-inhibiting activity in vitro (lymphocytes + IL-4 + anti-CD40 Ab + IL-10, sandwich ELISA); format: cell-based; settings: Lymphocyte; for inhibition at 0.1 µM: 100 nM (0.1 μM), vs. no compound; for IC50: IgG antibody production
Method: as §1, §2, §3, §4

[3] = system: anti-TNP IgE; assay: IgE antibody production-inhibiting performance on TNP-sensitive mice: serum anti-TNP IgE (ELISA); format: in vivo, mouse; settings: serum day 11, vehicle 433 ± 118
Method: (§5) Measurement of IgE antibody production-inhibiting performance on TNP-sensitive mice
(§6) TNP-KLH (2 μg/head) and Alum (1 mg/head) were dosed into the abdominal cavities of 8-week-old male mice to sensitize the mice.
(§7) Compound No. 14 was suspended in a concentration of 1.0 mg/ml, 3.0 mg/ml or […] in an aqueous 5% gum arabi solution, and each suspension was perorally dosed to three groups of mice for medication, to which each medicine was dosed at a dosage of 10 ml/kg, (namely, 10 mg/kg, 30 mg/kg or 100 mg/kg), once a day continuously for 10 days from the sensitized day. For a vehicle mouse group, the above-mentioned aqueous gum arali solution was dosed in the same amount as mentioned above in the same manner as mentioned above.
(§8) On the day after the final dosing day (the eleventh day), blood was extracted from the heart of the mouse, and a TNP specific antibody value of a blood serum obtained from the extracted blood was measured in accordance with ELISA method.

[4] = system: anti-TNP IgG; assay: TNP-sensitive mice: serum anti-TNP IgG (ELISA); format: in vivo, mouse; settings: serum day 11, vehicle 4390 ± 2630
Method: as §5, §6, §7, §8

[5] = system: anti-TNP IgM; assay: TNP-sensitive mice: serum anti-TNP IgM (ELISA); format: in vivo, mouse; settings: serum day 11, vehicle 110 ± 9
Method: as §5, §6, §7, §8

[6] = 10 mg/kg p.o. once a day for 10 days
[7] = 100 mg/kg p.o. once a day for 10 days, ** p < 0.01 vs. vehicle
[8] = 30 mg/kg p.o. once a day for 10 days

Row | IC50 [1] | IC50 [2] | SMILES | inhibition at 0.1 µM [1] | inhibition at 0.1 µM [2] | also measured
1 | 28 nM | 200 nM | O=C(Cc1ccc(Oc2ccc(OCc3ccccc3)cc2)cc1)Nc1ccccc1C(=O)O [Compound No. 4, 2-(4-(4-benzyloxyphenoxy)phenylacetamido)benzoic acid] | 100% | 100% | –
2 | 17 nM | 50 nM | O=C(Cc1ccc(Oc2ccc(OC3CCCCC3)cc2)cc1)Nc1ccccc1C(=O)O [Compound No. 8, 2-(4-(4-cyclohexyloxyphenoxy)phenylacetamido)benzoic acid] | 95.5% | 40.6% | –
3 | 6 nM | 12 nM | O=C(Cc1ccc(Oc2ccc(OC3CCCCCCC3)cc2)cc1)Nc1ccccc1C(=O)O [Compound No. 14, 2-(4-(4-cyclooctyloxyphenoxy)phenylacetamido)benzoic acid] | 100% | 93.8% | anti-TNP IgE [3, 6]: 127 ± 72 ng/mL; anti-TNP IgE ([3]; 30 mg/kg p.o. once a day for 10 days, ** p < 0.01 vs. vehicle): 52 ± 30 ng/mL; anti-TNP IgE [3, 7]: 0.2 ± 0.4 ng/mL; anti-TNP IgG [4, 6]: 2980 ± 2310 ng/mL; anti-TNP IgG [4, 8]: 2500 ± 1700 ng/mL; anti-TNP IgG [4, 7]: 16 ± 18 ng/mL; anti-TNP IgM [5, 6]: 79 ± 40 µg/mL; anti-TNP IgM (μg/ml) [5, 8]: 73 ± +26 μg/ml; anti-TNP IgM [5, 7]: 20 ± 5.0 µg/mL
4 | 44 nM | > 100 nM | O=C(Cc1ccc(Oc2ccc(OC3CCCC3)cc2)cc1)Nc1ccccc1C(=O)O [compound 12, 2-(4-(4-cyclopentyloxyphenoxy)phenylacetamido)benzoic acid] | 100% | 95.8% | –
5 | 22 nM | 46 nM | O=C(Cc1ccc(Oc2ccc(OC3CCCCCCCCCCC3)cc2)cc1)Nc1ccccc1C(=O)O [compound 16, 2-(4-(4-cyclododecanyloxyphenoxy)phenylacetamido)benzoic acid] | 100% | 95.8% | –
6 | – | – | CC(C)Oc1ccc(Oc2ccc(CC(=O)Nc3ccccc3C(=O)O)cc2)cc1 [compound 18, 2-(4-(4-isopropyloxyphenoxy)phenylacetamido)benzoic acid] | 19.5% | -1.7% | –
7 | 35 nM | > 100 nM | CCC(CC)Oc1ccc(Oc2ccc(CC(=O)Nc3ccccc3C(=O)O)cc2)cc1 [compound 20, 2-(4-(4-(3-pentyloxy)phenoxy)phenylacetamido)benzoic acid] | 100% | 52.6% | –
8 | – | – | O=C(Nc1ccccc1C(=O)O)c1ccc(Oc2ccc(OC3CCCCCCC3)cc2)cc1 [compound 22, 2-(4-(4-cyclooctyloxyphenoxy)benzamido)benzoic acid] | 51% | -33.2% | –
9 | – | – | O=C(Nc1ccccc1C(=O)O)c1ccc(Oc2ccc(O)cc2)cc1 [compound 30, 2-(4-(4-hydroxyphenoxy)benzamido)benzoic acid] | 25.7% | -31.7% | –
